Measured values: publication PMC2724842 (Biochemistry, 2009)
Read-outs that look alike come from different tables or passages of the source.

How the values were obtained:
WT MtIPMS = WT MtIPMS (Mycobacterium tuberculosis, UniProt P9WQB3); assay: Steady-state kinetic analysis; format: biochemical
wild-type MtIPMS = wild-type MtIPMS (Mycobacterium tuberculosis, UniProt P9WQB3); format: biochemical
WT IPMS = WT IPMS (Mycobacterium tuberculosis, UniProt P9WQB3); format: binding; details: ITC
WT IPMS, sequence (P9WQB3 whole entry): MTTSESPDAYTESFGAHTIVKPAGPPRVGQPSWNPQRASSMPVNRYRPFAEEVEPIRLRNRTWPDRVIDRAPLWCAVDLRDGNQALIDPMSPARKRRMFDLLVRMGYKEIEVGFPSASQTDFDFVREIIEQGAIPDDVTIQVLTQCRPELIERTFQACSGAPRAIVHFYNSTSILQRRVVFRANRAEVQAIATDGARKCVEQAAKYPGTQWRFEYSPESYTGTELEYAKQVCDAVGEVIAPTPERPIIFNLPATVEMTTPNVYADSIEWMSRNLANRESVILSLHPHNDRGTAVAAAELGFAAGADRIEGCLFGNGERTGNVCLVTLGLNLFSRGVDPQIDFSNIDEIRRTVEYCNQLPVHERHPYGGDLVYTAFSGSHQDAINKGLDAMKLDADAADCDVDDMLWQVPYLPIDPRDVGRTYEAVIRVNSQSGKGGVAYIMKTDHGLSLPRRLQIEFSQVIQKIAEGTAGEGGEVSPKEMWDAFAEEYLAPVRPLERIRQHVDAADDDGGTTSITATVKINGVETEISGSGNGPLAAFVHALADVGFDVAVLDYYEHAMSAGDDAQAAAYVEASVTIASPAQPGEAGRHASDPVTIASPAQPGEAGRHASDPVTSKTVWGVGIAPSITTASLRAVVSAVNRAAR

WT MtIPMS, sequence (P9WQB3 whole entry): as above
wild-type MtIPMS, sequence (P9WQB3 whole entry): as above

**Q.** With `CC(=O)SCCNC(=O)CCNC(=O)[C@H](O)C(C)(C)COP(=O)(O)OP(=O)(O)OC[C@H]1O[C@@H](n2cnc3c(N)ncnc32)[C@H](O)[C@@H]1OP(=O)(O)O` [Acetyl-CoA, acetyl-coenzyme A] as the molecule, how does the Km (WT MtIPMS; read-out: K1 (Km), varied substrate Acetyl-CoA) read?
**A.** 24 ± 2 µM

**Q.** And the “kcat1 (kcat)” value (WT MtIPMS; varied substrate Acetyl-CoA)?
**A.** 2.72 ± 0.05 s⁻¹

**Q.** What does the source list for `CC(C)C[C@H](N)C(=O)O` [L-leucine]?
**A.** activity retained at saturating L-leucine (wild-type MtIPMS): approximately 10%; β (fractional activity at saturating inhibitor) (wild-type MtIPMS): 0.1; N (stoichiometry for binding) (WT IPMS): 0.86 ± 0.02; ΔH (WT IPMS): 0.774 ± 0.02 kcal/mol; ΔS (WT IPMS): 27.8 cal/mol/K

**Q.** How did the Km (WT MtIPMS; read-out: K1 (Km), varied substrate α-KIV) turn out when `CC(C)C(=O)C(=O)O` [α-KIV, α-ketoisovalerate] was run?
**A.** 7.1 ± 0.5 µM

**Q.** And the “kcat1 (kcat)” value (WT MtIPMS; varied substrate α-KIV)?
**A.** 2.53 ± 0.05 s⁻¹
